In patent US20240287108A1, “nSMASE2 INHIBITOR PRODRUGS WITH ENHANCED ORAL AND BRAIN EXPOSURES” (The Johns Hopkins University, priority 2021, published 2024):

Legend:
[1] = in vivo pharmacokinetic studies in mice (Example 1); design: species or system mouse; conditions: for AUC / MRT / half-life / Cmax: 10 mg/kg
Description: 1.2.1 In vitro metabolic stability assessment. In vitro metabolic stability assessment was performed using mouse plasma, and liver homogenates. For the liver homogenates, washed tissues were diluted 10-fold in 0.1 M potassium phosphate buffer and homogenized using a probe sonicator. To evaluate the stability of the intact prodrug over time, each of the tissue matrix were aliquoted to 1 mL and then spiked with 10 μM of corresponding prodrugs followed by incubation in an orbital shaker at 37° C. for 1 h (in triplicate). Sample from each incubation at predetermined time points (0 min, and 1 h) was quenched with three volumes of acetonitrile containing the internal standard (IS: losartan: 0.5 μm). Samples were vortex-mixed for 30 secs and centrifuged at 10,000 RPM for 10 min at 4° C. Disappearance of the intact compound was measured using liquid chromatography tandem mass spectrometry (LC-MS/MS). 1.2.2 In vivo pharmacokinetic studies in mice. Male CD-1 mice (n=3) were used to study the pharmacokinetic profiles of representive prodrug compounds. […] Blood and brain were collected after sacrificing the mice at predetermined time points. Plasma was harvested from blood by centrifugation at 3,000 RPM for 15 min and stored at −80° C. Brain tissues were harvested following blood collection and immediately snap frozen in liquid nitrogen and stored at −80° C. until LC-MS/MS analysis. […] Brain tissues were diluted 1:5 w/v with acetonitrile containing losartan (0.5 μm) and homogenized, followed by vortex-mixing and centrifugation at 10,000 RPM for 10 min at 4° C. A 50 μL aliquot of the supernatant was diluted with 50 μL of water and transferred to 250 μL polypropylene autosampler vials sealed with teflon caps. Then, 2 μL of the sample was injected into the LC-MS/MS system for analysis.

[2] = in vitro stability in CES1−/− mouse plasma; format: in vitro ADME; conditions: 10 μM
Description: All synthesized prodrugs were next screened for in vitro stability in carboxylesterase 1 knockout (CES1^−/−) mouse plasma, as well as CES1^−/− mouse brain and liver homogenates (Table 2-1). We have previously reported that CES1^−/− mouse model recapitulates human prodrug metabolism. Tenora et al., 2019.
(§1) Zimmermann et al., 2018. For the tissue homogenates, washed tissues were diluted 10-fold in 0.1 M potassium phosphate buffer and homogenized using a probe sonicator. To evaluate the stability of the intact prodrug over time, each of the crude homogenates and plasma were aliquoted to 1 mL and then spiked with a final assay concentration of 10 μM of each prodrug followed by incubation in an orbital shaker at 37° C. for 1 h (in triplicate). Sample from each incubation at predetermined time points (0 min, and 1 h) was quenched with three volumes of acetonitrile containing the internal standard (IS; losartan: 0.5 μm). Samples were vortex-mixed for 30 secs and centrifuged at 10,000×g for 10 min at 4° C. Disappearance of intact prodrugs from these samples were performed on a Dionex ultra-high-performance LC system coupled with Q Exactive Focus orbitrap mass spectrometer (Thermo Fisher Scientific Inc., Waltham MA). The separation of analytes was achieved using the Agilent Eclipse Plus column (100×2.1 mm i.d.; maintained at 35° C.) packed with a 1.8 μm C18 stationary phase. The mobile phase consisted of 0.1% formic acid in water and 0.1% formic acid in acetonitrile. Pumps were operated at a flow rate of 0.4 mL/min for 9 min using gradient elution. The mass spectrometer controlled by Xcalibur software 4.0.27.13 (Thermo Scientific) was operated with a heated electrospray ionization (HESI) ion source in positive ionization mode. Quantification of the prodrugs were performed in the full-scan mode (from m/z 50 to 1600) by comparing t=0 samples with t=60 min samples.

[3] = in vitro stability in CES1−/− mouse liver homogenates; format: in vitro ADME; conditions: CES1−/− mouse liver homogenate, 10 μM, 37° C.
Description: (§2) All synthesized prodrugs were next screened for in vitro stability in carboxylesterase 1 knockout (CES1^−/−) mouse plasma, as well as CES1^−/− mouse brain and liver homogenates (Table 2-1). We have previously reported that CES1^−/− mouse model recapitulates human prodrug metabolism.
as §1, with “For” for “Zimmermann et al., 2018. For”, “The separation of analytes was achieved using the Agilent Eclipse Plus column (100×2.1 mm i.d.; maintained at 35° C.) packed with a 1.8 μm C18 stationary phase.” left out

[4] = time-dependent oral pharmacokinetics in mice; format: in vivo, mouse
Description: As described earlier, we identified P1 and P18 as the most promising candidates for time dependent PK.
(§3) All PK studies in mice were conducted according to protocols approved by the Animal Care and Use Committee at Johns Hopkins University. Male CD-1 mice between 25 and 30 g were obtained from Harlan and maintained on a 12 h light-dark cycle with ad libitum access to food and water. […] All of the formulations were freshly prepared prior to the dosing. The mice were sacrificed at specified time points (either 2 h or 0.25, 0.5, 1, 2, 4, 6, and 8 h) post drug administration. For the collection of plasma and brain tissue, animals were euthanized with CO2, and blood samples were collected in heparinized microtubes by cardiac puncture. Brains were dissected and immediately flash frozen (−80° C.) Blood samples were spun at 2000 g for 15 min, and plasma was removed and stored at −80° C. until LC-MS/MS analysis. Prior to extraction, frozen samples were thawed on ice.
Brain tissues were diluted 1:5 w/v with acetonitrile containing losartan (0.5 μm) and homogenized, followed by vortex-mixing and centrifugation at 10,000 g for 10 min at 4° C. A 50 μL aliquot of the supernatant were diluted with 50 uL of water and transferred to 250 μL polypropylene autosampler vials sealed with teflon caps. Then, 2 μL of the sample were injected into the LC/MS/MS system for analysis. Chromatographic analysis was performed using an Accela ultra-high-performance system consisting of an analytical pump and an autosampler coupled with a TSQ Vantage mass spectrometer. […] The mobile phase consisted of 0.1% formic acid in acetonitrile and 0.1% formic acid in water with gradient elution were used. […] Plasma concentrations (nmol/ml) as well as brain tissue concentrations (nmol/g) were determined and plots of mean plasma concentration versus time were constructed. Non-compartmental analysis modules in Phoenix WinNonlin version 7.0 (Certara USA, Inc., Princeton, NJ) were used to quantify exposures (AUC0-t).

[5] = single time-point (2 h) oral pharmacokinetic screening in mice; format: in vivo, mouse; conditions: single time point PK, oral 10 mg/kg DPTIP equivalent
Description: as §3
Brain tissues were diluted 1:5 w/v with acetonitrile containing losartan (0.5 μm) and homogenized, followed by vortex-mixing and centrifugation at 10,000 g for 10 min at 4° C. […] Plasma concentrations (nmol/ml) as well as brain tissue concentrations (nmol/g) were determined and plots of mean plasma concentration versus time were constructed. Non-compartmental analysis modules in Phoenix WinNonlin version 7.0 (Certara USA, Inc., Princeton, NJ) were used to quantify exposures (AUC0-t).

[6] = in vitro metabolic stability in mouse plasma (Example 1); format: in vitro ADME; conditions: 10 μM, 37° C.
Description: 1.2.1 In vitro metabolic stability assessment. In vitro metabolic stability assessment was performed using mouse plasma, and liver homogenates. For the liver homogenates, washed tissues were diluted 10-fold in 0.1 M potassium phosphate buffer and homogenized using a probe sonicator. To evaluate the stability of the intact prodrug over time, each of the tissue matrix were aliquoted to 1 mL and then spiked with 10 μM of corresponding prodrugs followed by incubation in an orbital shaker at 37° C. for 1 h (in triplicate). Sample from each incubation at predetermined time points (0 min, and 1 h) was quenched with three volumes of acetonitrile containing the internal standard (IS: losartan: 0.5 μm). Samples were vortex-mixed for 30 secs and centrifuged at 10,000 RPM for 10 min at 4° C. Disappearance of the intact compound was measured using liquid chromatography tandem mass spectrometry (LC-MS/MS). 1.2.2 In vivo pharmacokinetic studies in mice. Male CD-1 mice (n=3) were used to study the pharmacokinetic profiles of representive prodrug compounds. […] Blood and brain were collected after sacrificing the mice at predetermined time points. Plasma was harvested from blood by centrifugation at 3,000 RPM for 15 min and stored at −80° C. Brain tissues were harvested following blood collection and immediately snap frozen in liquid nitrogen and stored at −80° C. until LC-MS/MS analysis. […]

[7] = dog plasma pharmacokinetics; format: in vivo; conditions: IV 2 mg/kg
[8] = previously reported pharmacokinetics; cited from earlier work
[9] = in vitro stability in CES1−/− mouse brain homogenates; format: in vitro ADME; conditions: CES1−/− mouse brain homogenate, 10 μM, 37° C.
Description: as §2
as §1, with “For” for “Zimmermann et al., 2018. For”, “The separation of analytes was achieved using the Agilent Eclipse Plus column (100×2.1 mm i.d.; maintained at 35° C.) packed with a 1.8 μm C18 stationary phase.” left out

EV release = conditions: previously reported; in vitro (b234 also in vivo when delivered systemically); cited from earlier work
[10] = male, CD-1, mouse, in vivo, po, intact prodrug, brain, mice, 10 mg/kg eqv
[11] = male, CD-1, mouse, in vivo, po, intact prodrug, plasma, mice, 10 mg/kg eqv

COc1cc(-c2nc(-c3ccccc3)c(-c3cccs3)[nH]2)cc(OC)c1OC(=O)N1CCC(N2CCCCC2)CC1 [Compound P1, 2,6-Dimethoxy-4-(4-phenyl-5-(thiophen-2-yl)-1H-imidazol-2-yl)phenyl[1,4′-bipiperidine]-1′-carboxylate]
AUC [1, 10]: 0.477 µM·h | MRT [1, 10]: 2.12 h | half-life [1, 10]: 4.37 h | Cmax ([1]; male, CD-1, mouse, in vivo, po, intact prodrug, brain, mice, 10 mg/kg eqv, read-out: Cmax): 106 ± 11.6 nM | AUC [1, 11]: 0.805 µM·h | MRT [1, 11]: 3.39 h | half-life [1, 11]: 2.45 h | Cmax ([1]; male, CD-1, mouse, in vivo, po, intact prodrug, plasma, mice, 10 mg/kg eqv, read-out: Cmax): 546 ± 25.8 nM | Tmax [1, 11]: 1 h | Kp ([1]; male, CD-1, mouse, in vivo, intact prodrug, mice, 10 mg/kg eqv, read-out: Brain:Plasma ratio): 0.6 | Stability in mouse (% remaining at 1h) Mean + Std Error, Plasma ([2]; CES1−/− mouse plasma, 37° C.): 90 ± 2% | Stability in mouse (% remaining at 1h) Mean + Std Error, Liver [3]: 85 ± 3% | plasma exposure of the intact compound (AUC0-t) ([4]; oral 10 mg/kg DPTIP equivalent): 0.8299 µM·h | conversion of prodrug to DPTIP in vivo ([4]; oral 10 mg/kg DPTIP equivalent (P18: in the brain)): about 40% | improvement of brain and plasma levels of DPTIP and/or its brain penetration index compared with DPTIP [5]: highest improvement

COc1cc(-c2nc(-c3ccccc3)c(-c3cccs3)[nH]2)cc(OC)c1OC(=O)C1=CN(C)C=CC1 [Compound P17, 2,6-Dimethoxy-4-(4-phenyl-5-(thiophen-2-yl)-1H-imidazol-2-yl)phenyl 1-methyl-1,4-dihydropyridine-3-carboxylate]
intact prodrug remaining after 1 hour of incubation [6]: approximately 50% | Stability in mouse (% remaining at 1h) Mean + Std Error, Plasma ([2]; CES1−/− mouse plasma, 37° C.): 52 ± 2% | Stability in mouse (% remaining at 1h) Mean + Std Error, Liver [3]: 22 ± 1%

COc1cc(-c2nc(-c3cccs3)c(-c3ccccc3)[nH]2)cc(OC)c1O [DPTIP, 2,6-dimethoxy-4-(5-phenyl-4-(thiophen-2-yl)-1H-imidazol-2-yl) phenol, reference compound]
AUC [7]: 7.47 µM·h | Cmax [7]: 5500 nM | t1/2 (rapid clearance) of DPTIP [8]: < 0.5 h | Cmax ([1]; male, CD-1, mouse, plasma, po): 400 nM | brain levels of DPTIP ([1]; mice, oral 10 mg/kg DPTIP equivalent): 50 nM | Stability in mouse (% remaining at 1h) Mean + Std Error, Plasma ([2]; CES1−/− (carboxylesterase 1 knockout), mouse, plasma): 103 ± 2% | Stability in mouse (% remaining at 1h) Mean + Std Error, Liver [3]: 98 ± 6% | Stability in mouse (% remaining at 1h) Mean + Std Error, Brain [9]: 89 ± 4% | inhibition of EV release (EV release): dose-dependently inhibiting EV release in vitro and in vivo
